Results reported in patent publication US10934298B2, “Substituted pyrazolo[1,5-a]pyrimidines for the treatment of medical disorders” (BIAL—BioTech Investments, Inc., priority 2016, dated 2021).

Molecular target: T1, glucocerebrosidase (Gcase) (Homo sapiens, UniProt P04062)
T1 construct: micellar solution containing 10 nM GCase and 100 nM saposin C
T1 sequence (P04062 40-536): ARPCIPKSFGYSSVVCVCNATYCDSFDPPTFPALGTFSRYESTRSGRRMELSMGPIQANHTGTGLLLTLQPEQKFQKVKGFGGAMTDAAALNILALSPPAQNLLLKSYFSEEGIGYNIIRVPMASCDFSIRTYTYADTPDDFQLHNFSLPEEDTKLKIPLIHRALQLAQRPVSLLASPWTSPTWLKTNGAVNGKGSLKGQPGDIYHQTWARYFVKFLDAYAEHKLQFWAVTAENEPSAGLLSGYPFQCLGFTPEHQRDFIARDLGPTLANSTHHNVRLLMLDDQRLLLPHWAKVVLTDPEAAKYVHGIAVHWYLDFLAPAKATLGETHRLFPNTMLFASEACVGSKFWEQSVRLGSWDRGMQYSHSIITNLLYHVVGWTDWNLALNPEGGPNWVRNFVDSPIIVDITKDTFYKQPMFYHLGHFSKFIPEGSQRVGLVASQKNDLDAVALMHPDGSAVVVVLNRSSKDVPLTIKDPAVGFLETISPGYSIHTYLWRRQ
Assay: Glucocerebrosidase (Gcase) activation assay with 4-methylumbelliferyl-beta-D-glucopyranoside substrate, saposin C and phosphatidylserine/triton micelles, fluorescence readout
Assay type: biochemical
Outline: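 Test compounds are first screened at 1.0 and 0.1 μM final, then titrated in 8 points (3-fold from 5 μM) against human GCase with saposin C in phosphatidylserine/triton X-100 micelles at pH 4.7. Reactions run 15 min at room temperature, with fluorescence read at 365/440 nm.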

| Structure (SMILES) | Percent Gcase Activation, 0.1 μM Test Compound (0.1 μM test compound) | Percent Gcase Activation, 1 μM Test Compound (1 μM test compound) | Percent Gcase Activation, 0.1 μM Test Compound (test compound at 0.1 μM) | Percent Gcase Activation, 1 μM Test Compound (test compound at 1.0 μM) | other results |
| --- | --- | --- | --- | --- | --- |
| Cc1cc(-c2c(F)cccc2C#N)nc2c(C(=O)N[C@@H](C)C(F)(F)F)cnn12 [III-400] | ** (Gcase activation in the range of 10% up to 20%) | +++ (Gcase activation greater than 60%) | – | – | – |
| COc1cc(F)cc(-c2cc(C)n3ncc(C(=O)NC(C)C(F)(F)F)c3n2)c1 (centres unmarked) [III-410] | *** (greater than 20% Gcase activation) | +++ (Gcase activation greater than 60%) | – | – | – |
| COc1c(C#N)cccc1-c1cc(C)n2ncc(C(=O)N[C@@H](C)C3CC3)c2n1 [III-143] | – | – | * (less than 10% Gcase activation) | + (less than 30% Gcase activation) | – |
| COc1ccc(F)c(-c2cc(C)n3ncc(C(=O)NC(C)C(F)(F)F)c3n2)c1 (centres unmarked) [III-409] | *** (greater than 20% Gcase activation) | +++ (Gcase activation greater than 60%) | – | – | – |
| Cc1cc(-c2cc(F)ccc2C#N)nc2c(C(=O)N[C@H](C)C(F)(F)F)cnn12 [III-349] | *** (greater than 20% Gcase activation) | ++ (Gcase activation in the range of 30% up to 60%) | – | – | – |
| COc1cc(F)cc(-c2cc(C)n3ncc(C(=O)N[C@@H](C)C4CC4)c3n2)c1 [III-137] | – | – | *** (greater than 20% Gcase activation) | +++ (Gcase activation greater than 60%) | – |
| Cc1cc(-c2ccccn2)nc2c(C(=O)NC(C3CC3)C(F)(F)F)cnn12 (centres unmarked) [III-36] | – | – | – | – | Percent Gcase Activation, 0.1 μM Test Compound (0.1 μM test compound, Table 3A): *** (greater than 20% Gcase activation); Percent Gcase Activation, 1 μM Test Compound (1 μM test compound, Table 3A): +++ (Gcase activation greater than 60%) |
| CCc1cc(N2CCN(C(C)C)C2=O)nc2c(C(=O)NC(C)C(F)(F)F)cnn12 (centres unmarked) [III-226] | – | – | * (less than 10% Gcase activation) | ++ (Gcase activation in the range of 30% up to 60%) | – |
| Cc1cc(N2CCCCC2)nc2c(C(=O)NC(C)C3CC3)cnn12 (centres unmarked) [III-31] | – | – | – | – | Percent Gcase Activation, 0.1 μM Test Compound (0.1 μM test compound, Table 3A): *** (greater than 20% Gcase activation); Percent Gcase Activation, 1 μM Test Compound (1 μM test compound, Table 3A): +++ (Gcase activation greater than 60%) |
| Cc1cc(N2CC(C(C)C)OC2=O)nc2c(C(=O)N[C@H](C3CC3)C(F)(F)F)cnn12 (some centres unmarked) [III-317] | ** (Gcase activation in the range of 10% up to 20%) | +++ (Gcase activation greater than 60%) | – | – | – |
| COc1ccc(F)cc1-c1cc(C)n2ncc(C(=O)N[C@@H](C)C(F)(F)F)c2n1 [III-196] | – | – | *** (greater than 20% Gcase activation) | +++ (Gcase activation greater than 60%) | – |
| Cc1cc(-c2cccnc2)nc2c(C(=O)N[C@H](C)c3ccc(Cl)cc3)cnn12 [III-37] | – | – | – | – | Percent Gcase Activation, 0.1 μM Test Compound (0.1 μM test compound, Table 3A): ** (Gcase activation in the range of 10% up to 20%); Percent Gcase Activation, 1 μM Test Compound (1 μM test compound, Table 3A): +++ (Gcase activation greater than 60%) |
| Cc1cc(-c2cc(F)c3ocnc3c2)nc2c(C(=O)NC(C)C(F)(F)F)cnn12 (centres unmarked) [III-295] | *** (greater than 20% Gcase activation) | +++ (Gcase activation greater than 60%) | – | – | – |
| Cc1cc(-c2ccns2)nc2c(C(=O)N[C@H](C)C3CC3)cnn12 [III-198] | – | – | * (less than 10% Gcase activation) | +++ (Gcase activation greater than 60%) | – |
| Cc1nc(-c2cc(C)n3ncc(C(=O)N[C@H](C)C(F)(F)F)c3n2)oc1C [III-345] | ** (Gcase activation in the range of 10% up to 20%) | +++ (Gcase activation greater than 60%) | – | – | – |
| COc1cc(-c2cc(C)n3ncc(C(=O)NC(C)C(F)(F)F)c3n2)ccc1F (centres unmarked) [III-148] | – | – | ** (Gcase activation in the range of 10% up to 20%) | +++ (Gcase activation greater than 60%) | – |
| Cc1cc(C)n2ncc(C(=O)NC(C3CC3)C(F)(F)F)c2n1 (centres unmarked) [III-9] | – | – | – | – | Percent Gcase Activation, 0.1 μM Test Compound (0.1 μM test compound, Table 3A): ** (Gcase activation in the range of 10% up to 20%); Percent Gcase Activation, 1 μM Test Compound (1 μM test compound, Table 3A): +++ (Gcase activation greater than 60%) |
| Cc1cc(-c2ccc(F)cc2)n2ncc(C(=O)N[C@@H](C)C3CC3)c2n1 [III-8] | – | – | – | – | Percent Gcase Activation, 0.1 μM Test Compound (0.1 μM test compound, Table 3A): * (less than 10% Gcase activation); Percent Gcase Activation, 1 μM Test Compound (1 μM test compound, Table 3A): + (less than 30% Gcase activation) |
| Cc1cc(-c2cncc(Cl)c2)nc2c(C(=O)N[C@H](C)C3CC3)cnn12 [III-291] | *** (greater than 20% Gcase activation) | +++ (Gcase activation greater than 60%) | – | – | – |
| CO[C@H]1CC[C@@H]([C@@H](C)NC(=O)c2cnn3c(C)cc(C)nc23)CC1 [III-404] | * (less than 10% Gcase activation) | +++ (Gcase activation greater than 60%) | – | – | – |
| Cc1cc(N2CCCN(C(C)C)C2=O)nc2c(C(=O)NC(C3CC3)C(F)(F)F)cnn12 (centres unmarked) [III-257] | – | – | ** (Gcase activation in the range of 10% up to 20%) | ++ (Gcase activation in the range of 30% up to 60%) | – |
| Cc1cc(N2CCCC(F)(F)C2)nc2c(C(=O)NC(C3CC3)C(F)(F)F)cnn12 (centres unmarked) [III-66] | – | – | – | – | Percent Gcase Activation, 0.1 μM Test Compound (0.1 μM test compound, Table 3A): *** (greater than 20% Gcase activation); Percent Gcase Activation, 1 μM Test Compound (1 μM test compound, Table 3A): +++ (Gcase activation greater than 60%) |
| C#CC(C)(C)NC(=O)c1cnn2c(C)cc(-c3cccc(Cl)c3)nc12 [III-81] | – | – | – | – | Percent Gcase Activation, 0.1 μM Test Compound (0.1 μM test compound, Table 3A): *** (greater than 20% Gcase activation); Percent Gcase Activation, 1 μM Test Compound (1 μM test compound, Table 3A): +++ (Gcase activation greater than 60%) |
| Cc1cc(-c2cccnc2)nc2c(C(=O)NC(C)(C)C3CC3)cnn12 [III-18] | – | – | – | – | Percent Gcase Activation, 0.1 μM Test Compound (0.1 μM test compound, Table 3A): ** (Gcase activation in the range of 10% up to 20%); Percent Gcase Activation, 1 μM Test Compound (1 μM test compound, Table 3A): +++ (Gcase activation greater than 60%) |
| Cc1cc(-c2cccc(F)c2)nc2c(C(=O)NC(C)(C)C(F)(F)F)cnn12 [III-80] | – | – | – | – | Percent Gcase Activation, 0.1 μM Test Compound (0.1 μM test compound, Table 3A): ** (Gcase activation in the range of 10% up to 20%); Percent Gcase Activation, 1 μM Test Compound (1 μM test compound, Table 3A): +++ (Gcase activation greater than 60%) |
| Cc1cc(C)n2ncc(C(=O)N[C@H](C3CC3)C(F)(F)F)c2n1 [III-10] | – | – | – | – | Percent Gcase Activation, 0.1 μM Test Compound (0.1 μM test compound, Table 3A): ** (Gcase activation in the range of 10% up to 20%); Percent Gcase Activation, 1 μM Test Compound (1 μM test compound, Table 3A): +++ (Gcase activation greater than 60%) |
| Cc1cc(-c2sccc2C#N)nc2c(C(=O)NC(C)C(F)(F)F)cnn12 (centres unmarked) [III-300] | *** (greater than 20% Gcase activation) | +++ (Gcase activation greater than 60%) | – | – | – |
| Cc1cc(-c2ccc(C#N)nc2)nc2c(C(=O)N[C@@H](C3CC3)C(F)(F)F)cnn12 [III-368] | ** (Gcase activation in the range of 10% up to 20%) | +++ (Gcase activation greater than 60%) | – | – | – |
| COc1ccc(F)c(-c2cc(C)n3ncc(C(=O)N[C@@H](C)C(F)(F)F)c3n2)c1 [III-98] | – | – | *** (greater than 20% Gcase activation) | +++ (Gcase activation greater than 60%) | – |

Further lines, with some results ahead:

| Percent Gcase Activation, 0.1 μM Test Compound (0.1 μM test compound) | Percent Gcase Activation, 1 μM Test Compound (1 μM test compound) | Percent Gcase Activation, 0.1 μM Test Compound (test compound at 0.1 μM) | Percent Gcase Activation, 1 μM Test Compound (test compound at 1.0 μM) | Structure (SMILES) | other results |
| --- | --- | --- | --- | --- | --- |
| *** (greater than 20% Gcase activation) | +++ (Gcase activation greater than 60%) | – | – | Cc1cc(-c2noc(C(C)C)n2)nc2c(C(=O)N[C@H](C3CC3)C(F)(F)F)cnn12 [III-393] | – |
| – | – | *** (greater than 20% Gcase activation) | +++ (Gcase activation greater than 60%) | COc1cc(F)ccc1-c1cc(C)n2ncc(C(=O)NC(C3CC3)C(F)(F)F)c2n1 (centres unmarked) [III-149] | – |
| – | – | * (less than 10% Gcase activation) | + (less than 30% Gcase activation) | Cc1cc(-c2cccc(-c3ncccn3)n2)nc2c(C(=O)NC(C3CC3)C(F)(F)F)cnn12 (centres unmarked) [III-175] | – |
| – | – | *** (greater than 20% Gcase activation) | +++ (Gcase activation greater than 60%) | Cc1cc(-c2cncc(Cl)c2)nc2c(C(=O)NC(C3CC3)C(F)(F)F)cnn12 (centres unmarked) [III-119] | – |
| – | – | *** (greater than 20% Gcase activation) | +++ (Gcase activation greater than 60%) | Cc1cc(-c2sccc2C#N)nc2c(C(=O)NC(C3CC3)C(F)(F)F)cnn12 (centres unmarked) [III-189] | – |
| – | – | *** (greater than 20% Gcase activation) | +++ (Gcase activation greater than 60%) | COc1cncc(-c2cc(C)n3ncc(C(=O)N[C@H](C4CC4)C(F)(F)F)c3n2)c1 [III-266] | – |
| – | – | *** (greater than 20% Gcase activation) | +++ (Gcase activation greater than 60%) | Cc1cncc(-c2cc(C)n3ncc(C(=O)NC(C4CC4)C(F)(F)F)c3n2)c1 (centres unmarked) [III-275] | – |
| *** (greater than 20% Gcase activation) | +++ (Gcase activation greater than 60%) | – | – | Cc1cc(N2C[C@H](c3ccccc3)OC2=O)nc2c(C(=O)NC(C3CC3)C(F)(F)F)cnn12 (some centres unmarked) [III-314] | – |
